# According to patent publication US20220354834A1, “METHODS AND MATERIALS FOR TREATING NEUROTOXICITY” (Cavion, Inc., priority 2019, published 2022):
# Key:
# [1] = In vivo anti-tumor (interference) study: body weight; set-up: species or system athymic nude mouse; conditions: 28 days
# Description: Care and husbandry of mice complied with USDA (U.S. Department of Agriculture) Animal Welfare Act and START IACUC (Institutional Animal Care and Use Committee) regulations. The protocol was reviewed and approved by START IACUC. Mice were individually housed in Sealsafe® Plus ventilated cages (Techniplast, West Chester, Pa., USA) and fed with Teklad 2919 (Envigo, Somerset, N.J., USA), irradiated, 19% protein, 9% fat and 4% fiber mouse chow. Mice were maintained under controlled environmental conditions (22+/−2° C. temperature, 55+/−10% relative humidity and 12-hour light/dark cycle (7 a.m.-7 p.m.).
# South Texas Accelerated Research Therapeutics (START) (San Antonio, Tex., USA) conducted this study. […] The 30 mg/kg dose was tolerated in preclinical safety studies and anticipated to result in exposures in excess of the therapeutic range for 28 days. Body weight, TV and animal observations were collected twice per week to day 18 (termination) for vehicle control mice and twice per week to day 28 (termination) for each of the other 3 groups. Mean±SD body weight and TV were analyzed with Kruskal-Wallis and Dunn multiple comparison test at day 18 and with Mann Whitney test at day 28 with statistical significance at p<0.05.
# [2] = test system: sciatic nerves (BTZ-induced CIPN); assay: CIPN-reversal study: sciatic nerve conduction velocity; assay type: in vivo, Wistar rat
# Experimental: (§1) Wistar female rats (n=52) (Envigo, Correzzano, Italy) at 10-11 weeks of age were utilized. The study was divided into 2 phases of 4 weeks each. […] Body weight was measured periodically during phase 1 from baseline (day 1) to day 28. At baseline and conclusion of phase 1 (day 28), nerve conduction velocity (NCV) was performed on caudal and sciatic nerves and Dynamic Aesthesiometer Test (DAT) measured mechanical threshold (MT) of the hind paw. […] Body weight was measured periodically from baseline (day 28) to day 56 (termination). NCV and MT were measured in all 4 groups at baseline and on day 35 and 56. […] At termination, sciatic nerves were obtained for β-tubulin polymerization and skin samples were procured for intraepidermal nerve fiber (IENF) density and histopathology.
# NCV (meters/second) was obtained from caudal and sciatic nerves with an electromyography tool (Myto 2, ABN Neuro, Firenze, Italy). Caudal NCV was measured by placement of recording needle electrodes distally in the tail with stimulating needle electrodes 5 cm and 10 cm proximal to recording point. Peak latencies of potentials recorded at the 2 sites after nerve stimulation were determined and NCV was calculated. Sciatic NCV was determined by placement of needle recording electrodes near ankle bone and stimulating electrodes close to thigh. Peak latencies were recorded similar to caudal nerve and NCV was calculated. NCV was performed under standard conditions in a temperature-controlled facility (22±2° C.) and rats were under isoflurane anesthesia with monitoring of vital signs.
# [3] = test system: β-tubulin; assay: β-tubulin polymerization assay in sciatic nerve; assay type: in vivo, Wistar rat; conditions: week 8
# Experimental: as §1
# At day 56, animals were euthanized by CO2 inhalation and tissue samples were procured from 4 rats per group. Right sciatic nerve was frozen in liquid nitrogen for β-tubulin polymerization assay and plantar glabrous skin samples were collected for IENF density.
# Protein extracts from sciatic nerves were processed similar to the proteasome assay except for lysis buffer that contained freshly added protease and […] (10 mM sodium orthovanadate, 4 mM phenylmethylsulfonyl fluoride, 1% aprotinin and 20 mM sodium pyrophosphate). Protein extracts were centrifuged (14000 rpm for 10 minutes at 4° C.) to separate soluble (S) free tubulin fractions from polymerized (P) fractions. Supernatants were collected and pellets of polymerized tubulin were resuspended by sonication for 20 seconds in a volume of lysis buffer supplemented with 0.5% sodium deoxycholate (equivalent to S fraction). Protein aliquots (10 μg) were placed onto 13% SDS-PAGE and, after electrophoresis, were transferred to nitrocellulose filters. Immunoblotting analysis was performed using mouse anti-β-tubulin antibody. After incubation with primary antibody, membrane was washed and incubated with horseradish peroxidase conjugated to […] (Perkin Elmer Italia SPA, Monza, Italy). The ECL chemiluminescence system (Amersham GE Healthcare Europe GmbH, Milano, Italy) was used for detection. Band intensity was quantified with Gel Logic 100 Image System (Eastman Kodak, Rochester, N.Y., USA). Final mean values were obtained from triplicate experiments and data were expressed as percentage of P/P+S in treated rats compared to controls.
# [4] = CIPN-reversal study: body weight, tolerability, mortality; assay type: in vivo
# Experimental: Rats were housed 2-3 per cage under similar environmental conditions as nude mice in the interference study.
# as §1
# [5] = test system: MM.1S cells; assay: In vitro BTZ cytotoxicity study (SRB assay); assay type: cell-based; conditions: Homo sapiens, MM1.S, 72 hours, read-out: IC50 of % cell survival
# Experimental: (§2) MM.1S and U266B1 cells were obtained from the American Type Culture Collection (San Giovanni, Italy). All cell lines were maintained in floating culture with RPMI medium that contained 2 mM L-glutamine supplemented with 10% FBS, penicillin and streptomycin. MM.1S cell medium was supplemented with 1.5 g/L sodium bicarbonate, 10 mM HEPES and 1 mM sodium pyruvate. Cells were grown in 75 cm^2 culture flasks for floating cells (Corning Inc. Corning, N.Y., USA) at 37° C. in 5% CO2 and 95% air.
# (§3) Cells were plated in 96-well plates (Eppendorf, Milano, Italy) at 10000 cells/well. […] After incubation, BTZ was diluted in culture medium at dose range for testing. Cells were fixed with trichloroacetic acid for 1 hour. Cells were stained with a solution of SRB in 1% acetic acid for 15 minutes. Unbound dye was removed by 5 washes with 1% acetic acid. Bound dye was dissolved with a solution of Tris (hydroxymethyl) aminomethane base and absorbance of content was measured at […]. Growth inhibition was expressed as percentage of DMSO control absorbance of cells and corrected for absorbance before addition of drug.
# [6] = test system: U266B1 cells; assay: In vitro BTZ cytotoxicity study (SRB assay); assay type: cell-based; conditions: Homo sapiens, 72 hours, read-out: IC50 of % cell survival
# Experimental: as §2, §3
# [7] = test system: proteasome; assay: Proteasome inhibition assay in PBMCs of treated rats; assay type: in vivo, rat
# Experimental: as §1
# [8] = test system: human MMCs (RPMI 8226, MM.1S, U266B1); assay: In vitro cytotoxicity and combination (BTZ and CX-8998) interference study, SRB assay in the 3 MCLs; assay type: cell-based; conditions: 72 hours
# Experimental: as §3
# Differences in percent cell survival between each drug or drug combination and control were analyzed by non-linear least squares with statistical significance at p<0.05.
# [9] = BTZ vs BTZ+ CX-8998 3 mg/kg, P > 0.05 ns
# [10] = BTZ vs BTZ+ CX-8998 10 mg/kg, P > 0.05 ns
# [11] = BTZ vs BTZ+ CX-8998 30 mg/kg, P > 0.05 ns
# [12] = BTZ+ CX-8998 3 mg/kg vs BTZ+ CX-8998 10 mg/kg, P > 0.05 ns
# [13] = BTZ+ CX-8998 3 mg/kg vs BTZ+ CX-8998 30 mg/kg, P > 0.05 ns
# [14] = BTZ+ CX-8998 10 mg/kg vs BTZ+ CX-8998 30 mg/kg, P > 0.05 ns
# [15] = CTRL vs BTZ+ CX-8998 3 mg/kg, P > 0.05 ns
# [16] = CTRL vs BTZ+ CX-8998 10 mg/kg, P > 0.05 ns
# [17] = CTRL vs BTZ+ CX-8998 30 mg/kg, P > 0.05 ns
smiles,measurement,setting,value
"CC(C)c1ccc(CC(=O)N[C@H](C)c2ccc(OCC(F)(F)F)cn2)cc1 [CX-8998, (R)-2-(4-Isopropylphenyl)-N-(1-(5-(2,2,2-Trifluoroethoxy)pyridin-2-yl)ethyl)acetamide]",body weight,[1]; 1 mg/kg BTZ in combination with 30 mg/kg CX-8998 orally once daily,transient body weight loss during first two weeks of treatment and no weight gain at day 18 and 28
same,"NCV OF SCIATIC NERVE (5 weeks), Difference in rank sum (Dunn's Multiple Comparison Test)",[2]; [9],6.667
same,"NCV OF SCIATIC NERVE (8 weeks), Difference in rank sum (Dunn's Multiple Comparison Test)",[2]; [9],−10.12
same,"NCV OF SCIATIC NERVE (8 weeks), Difference in rank sum (Dunn's Multiple Comparison Test)","[2]; BTZ vs BTZ+ CX-8998 10 mg/kg, P < 0.05 *",−19.26
same,"NCV OF SCIATIC NERVE (5 weeks), Difference in rank sum (Dunn's Multiple Comparison Test)",[2]; [10],2.583
same,"NCV OF SCIATIC NERVE (8 weeks), Difference in rank sum (Dunn's Multiple Comparison Test)","[2]; BTZ vs BTZ+ CX-8998 30 mg/kg, P < 0.05 *",−19.77
same,"NCV OF SCIATIC NERVE (5 weeks), Difference in rank sum (Dunn's Multiple Comparison Test)",[2]; [11],5.250
same,"NCV OF SCIATIC NERVE (5 weeks), Difference in rank sum (Dunn's Multiple Comparison Test)",[2]; [12],−4.083
same,"NCV OF SCIATIC NERVE (8 weeks), Difference in rank sum (Dunn's Multiple Comparison Test)",[2]; [12],−9.136
same,"NCV OF SCIATIC NERVE (5 weeks), Difference in rank sum (Dunn's Multiple Comparison Test)",[2]; [13],−1.417
same,"NCV OF SCIATIC NERVE (8 weeks), Difference in rank sum (Dunn's Multiple Comparison Test)",[2]; [13],−9.652
same,"NCV OF SCIATIC NERVE (5 weeks), Difference in rank sum (Dunn's Multiple Comparison Test)",[2]; [14],2.667
same,"NCV OF SCIATIC NERVE (8 weeks), Difference in rank sum (Dunn's Multiple Comparison Test)",[2]; [14],−0.5152
same,"NCV OF SCIATIC NERVE (5 weeks), Difference in rank sum (Dunn's Multiple Comparison Test)",[2]; [15],8.917
same,"NCV OF SCIATIC NERVE (8 weeks), Difference in rank sum (Dunn's Multiple Comparison Test)",[2]; [15],11.98
same,"NCV OF SCIATIC NERVE (5 weeks), Difference in rank sum (Dunn's Multiple Comparison Test)",[2]; [16],4.833
same,"NCV OF SCIATIC NERVE (8 weeks), Difference in rank sum (Dunn's Multiple Comparison Test)",[2]; [16],2.848
same,"NCV OF SCIATIC NERVE (5 weeks), Difference in rank sum (Dunn's Multiple Comparison Test)",[2]; [17],7.500
same,"NCV OF SCIATIC NERVE (8 weeks), Difference in rank sum (Dunn's Multiple Comparison Test)",[2]; [17],2.333
same,"TUBULIN POLYMERIZATION, Difference in rank sum (Dunn's Multiple Comparison Test)",[3]; [9],−4.000
same,"TUBULIN POLYMERIZATION, Difference in rank sum (Dunn's Multiple Comparison Test)",[3]; [10],−4.000
same,"TUBULIN POLYMERIZATION, Difference in rank sum (Dunn's Multiple Comparison Test)",[3]; [11],15.00
same,"TUBULIN POLYMERIZATION, Difference in rank sum (Dunn's Multiple Comparison Test)",[3]; [12],0.000
same,"TUBULIN POLYMERIZATION, Difference in rank sum (Dunn's Multiple Comparison Test)","[3]; BTZ+ CX-8998 3 mg/kg vs BTZ+ CX-8998 30 mg/kg, P < 0.05 *",19.00
same,"TUBULIN POLYMERIZATION, Difference in rank sum (Dunn's Multiple Comparison Test)","[3]; BTZ+ CX-8998 10 mg/kg vs BTZ+ CX-8998 30 mg/kg, P < 0.05 *",19.00
same,"TUBULIN POLYMERIZATION, Difference in rank sum (Dunn's Multiple Comparison Test)","[3]; CTRL vs BTZ+ CX-8998 3 mg/kg, P < 0.05 *",−15.64
same,"TUBULIN POLYMERIZATION, Difference in rank sum (Dunn's Multiple Comparison Test)","[3]; CTRL vs BTZ+ CX-8998 10 mg/kg, P < 0.05 *",−15.46
same,"TUBULIN POLYMERIZATION, Difference in rank sum (Dunn's Multiple Comparison Test)",[3]; [17],0.2576
same,tolerability,[4]; BTZ in combination with CX-8998,well tolerated
same,mortality (animals),[4]; one each in combinations of BTZ with 3 mg/kg and 10 mg/kg CX-8998,two
same,body weight change,"[4]; weeks 5 and 8, BTZ in combination with 3, 10 and 30 mg/kg CX-8998",not significantly different
"CC(C)C[C@H](NC(=O)[C@H](Cc1ccccc1)NC(=O)c1cnccn1)B(O)O [BTZ, bortezomib, reference compound]",body weight,[1]; 1 mg/kg BTZ alone iv twice weekly,transient body weight loss during first two weeks of treatment and no weight gain at day 18 and 28
same,sciatic NCV,[2]; BTZ vs control at week 5,numerically less than control but the difference was not statistically significant
same,sciatic NCV,"[2]; BTZ vs control at weeks 4 and 8 (p<0.01, p<0.05)",significantly reduced
same,"NCV OF SCIATIC NERVE (8 weeks), Difference in rank sum (Dunn's Multiple Comparison Test)","[2]; CTRL vs BTZ, P < 0.05 *",22.10
same,"NCV OF SCIATIC NERVE (5 weeks), Difference in rank sum (Dunn's Multiple Comparison Test)","[2]; CTRL vs BTZ, P > 0.05 ns",2.250
same,"TUBULIN POLYMERIZATION, Difference in rank sum (Dunn's Multiple Comparison Test)","[3]; CTRL vs BTZ, P < 0.05 *",−14.74
same,β-tubulin polymerization (%),"[3]; BTZ alone vs control, p<0.05",significantly increased
same,IC50,[5],6 ± 0.5 nM
same,IC50,[6],2.5 ± 0.6 nM
same,% proteasome activity in circulating PBMCs,"[7]; BTZ, week 4 vs baseline, p<0.05",significant inhibition
same,proteasome activity,"[7]; weeks 5 and 8, BTZ alone",similarly inhibited
same,inhibition of cell growth (cytotoxicity),"[8]; BTZ 0.05-250 nM, 3 MCLs",concentration-dependent inhibition of cell growth
same,percent cell survival,"[8]; BTZ alone at IC50 (6, 4, 2.5 nM) vs DMSO control, p<0.001",significantly reduced
same,body weight change,"[4]; rat, in vivo",not significantly different
same,tolerability,"[4]; rat, in vivo",well tolerated
